Paper PMC10141604, “Small-Molecule Inhibition of Androgen Receptor Dimerization as a Strategy against Prostate Cancer” (ACS Central Science, 2023)
pIC50: −log10 of the molar value.

What was measured:
[1] = biological target: FL-AR^F876L (Homo sapiens, UniProt P10275, F877L); assay: Dual-luciferase reporter assay for FL-AR F876L in PC3 cells
Description: Luciferase Reporter Assays for FL -ARF876L and FL-ARF876L/T877A
constructed on the basis of the human full length wild type AR plasmid pCMV -hAR
transfected with 70 ng/well of FL -AR plasmid together with 24 ng of ARR2PB -Luc, and 5 ng of Renilla. After 1 day incubation at 37 °C , the antagonistic models were employed

[2] = biological target: T1, AR LBP (Rattus norvegicus, UniProt P15207); assay: Competitive ligand-binding assay (PolarScreen AR competitor assay)
T1 construct: purchased Invitrogen Life Technologies A15880
T1 sequence (P15207 651-882 limits assumed): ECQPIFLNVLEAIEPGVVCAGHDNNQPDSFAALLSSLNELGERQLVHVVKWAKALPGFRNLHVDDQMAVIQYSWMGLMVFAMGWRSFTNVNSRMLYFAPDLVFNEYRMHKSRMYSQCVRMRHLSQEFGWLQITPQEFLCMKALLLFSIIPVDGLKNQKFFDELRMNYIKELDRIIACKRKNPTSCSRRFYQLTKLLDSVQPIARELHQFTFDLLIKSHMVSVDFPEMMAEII
Description: Competitive Ligand Binding Assay
The binding affinities of M17 and M17-B15 to the LBP of AR LBD were determined
using PolarScreen™ Androgen Receptor Competitor Assay Kit (#A15880, Invitrogen Life
Technologies) according to the user manual. […]

[3] = tested on: Du145; assay: MTT cell viability assay, Du145; type: cell-based; settings: 72 h
Description: 3-(4,5-dimethythiazol-2-yl)-2,5-diphenyl-2-H-tetrazolium bromide (MTT) colorimetric assay was employed to investigate cell viability. Cells were seeded into 96-well plates with 2-5× 10^3 cells per well (5× 10^3 cells/well for LNCaP, 22RV1, NIH-3T3, GES-1, Chang, […]
NCI-H1299, U2OS, U87) for 1 day incubation at 37 °C. Then, the cells were treated with various concentrations of compounds (22.86 nM - 50 μM) and incubated for 72 h. Then, 10 μl MTT (5 mg/ml) was added into each well and incubated for 4 h. Afterwards, 100 μl of triplex 10% SDS-0.1% HCl-phosophate-buffered saline (PBS) solutions was added into each well and incubated for overnight. The absorbance at 570 nm was measured (Eon, Bioteck, Winooski, VT). […]

[4] = biological target: T2, AR LBD dimerization (Homo sapiens, UniProt P10275); assay: Acceptor photobleaching FRET microscopy assay in HEK293T cells; type: cell-based; settings: 10 μM, 10 nM DHT
T2 construct: LBD residues (613 -920); expressed in transfected cells; host or cells: HEK293T
T2 sequence (P10275 613-920): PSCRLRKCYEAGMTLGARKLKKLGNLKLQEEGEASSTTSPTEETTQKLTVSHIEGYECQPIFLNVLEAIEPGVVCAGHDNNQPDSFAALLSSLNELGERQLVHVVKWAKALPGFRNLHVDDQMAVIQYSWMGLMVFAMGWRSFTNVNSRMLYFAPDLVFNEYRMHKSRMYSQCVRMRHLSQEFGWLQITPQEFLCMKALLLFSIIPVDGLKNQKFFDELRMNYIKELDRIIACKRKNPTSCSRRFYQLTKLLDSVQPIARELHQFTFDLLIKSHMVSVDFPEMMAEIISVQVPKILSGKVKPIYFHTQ
Description: (22.86 nM - 50 μM). After another 24 h incubation, the luciferase activities were determined by the Dual -Glo Luciferase system (#E1910, Promega) according to the […]
Acceptor Photobleaching Fluorescence Resonance Energy Transfer (FRET) […]
The pCMV-cyan fluorescent protein (CFP, #D2623) and pCMV -yellow fluorescent protein (YFP, #D2716) plasmids were purchased from Beyotime Biotechnology. We constructed pCMV -YFP-(AR LBD) and pCMV -(AR LBD)-CFP by cloning human AR LBD residues (613 -920) into the fluorescent protein vector using seamless cloning kit (#C112-01, CloneExpress II, Vazyme). HEK293T (1× 10^5 cells/well) cells were cultured in 5% CSS DMEM media in 12-well plate with glass coverslips. The next day, ce lls were transfected with 400 ng pCMV -YFP-(AR LBD), 400 ng pCMV -(AR LBD) -CFP together with HG -Trans Gene TM transfection reagent (#TG-10012, Health & Gene™). Free YFP and CFP proteins were transfected together as control. […]
The FRET assay was then tested by Olympus FV1000 equipped with a UPlanSApo 60× /1.35 NA oil objective. CFP was detected using 405 nm excitation while YFP was excited using 515 nm at moderate laser power, and the emission was detected using a 480-495 nm bandpass emission filter and 535-565 nm bandpass emission filter, respectively.
The first pair of CFPbefore and YFPbefore was collected. […] The apparent FRET efficiency was calculated after background […]

FL-AR^F876L, sequence (P10275 whole entry F877L): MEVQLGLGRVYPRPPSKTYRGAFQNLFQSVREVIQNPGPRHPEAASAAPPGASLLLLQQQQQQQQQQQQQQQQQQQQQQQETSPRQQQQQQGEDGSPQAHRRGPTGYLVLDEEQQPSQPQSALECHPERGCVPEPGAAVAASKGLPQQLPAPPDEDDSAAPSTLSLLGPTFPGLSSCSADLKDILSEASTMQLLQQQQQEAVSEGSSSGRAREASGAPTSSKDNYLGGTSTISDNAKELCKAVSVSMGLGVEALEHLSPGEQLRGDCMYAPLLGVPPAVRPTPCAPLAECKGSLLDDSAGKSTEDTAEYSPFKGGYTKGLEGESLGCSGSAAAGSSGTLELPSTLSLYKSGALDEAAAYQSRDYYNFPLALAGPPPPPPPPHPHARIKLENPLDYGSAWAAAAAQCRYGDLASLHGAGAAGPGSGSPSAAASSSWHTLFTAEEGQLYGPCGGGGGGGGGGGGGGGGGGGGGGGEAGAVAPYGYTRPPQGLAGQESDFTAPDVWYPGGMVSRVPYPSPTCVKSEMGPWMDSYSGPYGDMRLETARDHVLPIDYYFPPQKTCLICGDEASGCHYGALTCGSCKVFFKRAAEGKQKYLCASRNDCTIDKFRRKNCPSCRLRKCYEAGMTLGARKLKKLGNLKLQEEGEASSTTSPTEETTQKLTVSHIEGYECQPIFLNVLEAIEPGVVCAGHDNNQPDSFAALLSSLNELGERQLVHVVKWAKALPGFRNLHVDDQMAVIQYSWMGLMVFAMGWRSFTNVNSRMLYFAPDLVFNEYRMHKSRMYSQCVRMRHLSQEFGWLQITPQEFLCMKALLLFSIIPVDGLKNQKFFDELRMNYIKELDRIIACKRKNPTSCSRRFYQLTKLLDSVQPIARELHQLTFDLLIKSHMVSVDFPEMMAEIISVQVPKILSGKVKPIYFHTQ

- pIC50 [1]: 6.80
- binding to the conventional LBP [2]: does not target the LBP
- FRET efficiency (AR LBD dimerization) [4]: lower FRET efficiency
SMILES: CC(=O)Cc1nsc(NC(=O)c2cc(-c3cccc(C(F)(F)F)c3)oc2C)n1 [Compound M17-B15]
- inhibition on the cell viability of Du145 [3]: does not show obvious inhibition
